Some targets named below: Histamine H2 receptor (Homo sapiens, UniProt P25021); Histamine H1 receptor (Homo sapiens, UniProt P35367); Cannabinoid receptor 1 (Rattus norvegicus, UniProt P20272); Nischarin (Rattus norvegicus, UniProt Q4G017); Histamine H4 receptor (Homo sapiens, UniProt Q9H3N8).
Test [1] has as its target Metabotropic glutamate receptor 8 (Rattus norvegicus, UniProt P70579).
Test [2] addresses Metabotropic glutamate receptor 6 (Rattus norvegicus, UniProt P35349).
Test [3] concerns the target Beta-1 adrenergic receptor (Rattus norvegicus, UniProt P18090).
Test [4] deals with Metabotropic glutamate receptor 1 (Rattus norvegicus, UniProt P23385).
Test [5] has as its target Neuronal acetylcholine receptor subunit alpha-2 (Homo sapiens, UniProt Q15822).
Test [6] has as its target Metabotropic glutamate receptor 2 (Rattus norvegicus) (UniProt P31421).
In test [7] the target is Neuronal acetylcholine receptor subunit alpha-4 (Rattus norvegicus, UniProt P09483).
Test [8] deals with Neuronal acetylcholine receptor subunit alpha-4 (Homo sapiens, UniProt P43681).
Test [9] concerns the target Metabotropic glutamate receptor 5 (Rattus norvegicus, UniProt P31424).
The target of test [10] is Neuronal acetylcholine receptor subunit alpha-3 (Homo sapiens, UniProt P32297).
In test [11] the target is Voltage-dependent L-type calcium channel subunit alpha-1C (Rattus norvegicus, UniProt P22002).
Test [12] has as its target Metabotropic glutamate receptor 4 (Rattus norvegicus, UniProt P31423).

Drawing on BindingDB's records for doi:10.1124/jpet.102.047092 (Case Western Reserve University, 2003), this text covers EC50 and Ki for two compounds.

pEC50, pKi: −log10 of the molar value.

Chain of Metabotropic glutamate receptor 8 (P70579 whole entry): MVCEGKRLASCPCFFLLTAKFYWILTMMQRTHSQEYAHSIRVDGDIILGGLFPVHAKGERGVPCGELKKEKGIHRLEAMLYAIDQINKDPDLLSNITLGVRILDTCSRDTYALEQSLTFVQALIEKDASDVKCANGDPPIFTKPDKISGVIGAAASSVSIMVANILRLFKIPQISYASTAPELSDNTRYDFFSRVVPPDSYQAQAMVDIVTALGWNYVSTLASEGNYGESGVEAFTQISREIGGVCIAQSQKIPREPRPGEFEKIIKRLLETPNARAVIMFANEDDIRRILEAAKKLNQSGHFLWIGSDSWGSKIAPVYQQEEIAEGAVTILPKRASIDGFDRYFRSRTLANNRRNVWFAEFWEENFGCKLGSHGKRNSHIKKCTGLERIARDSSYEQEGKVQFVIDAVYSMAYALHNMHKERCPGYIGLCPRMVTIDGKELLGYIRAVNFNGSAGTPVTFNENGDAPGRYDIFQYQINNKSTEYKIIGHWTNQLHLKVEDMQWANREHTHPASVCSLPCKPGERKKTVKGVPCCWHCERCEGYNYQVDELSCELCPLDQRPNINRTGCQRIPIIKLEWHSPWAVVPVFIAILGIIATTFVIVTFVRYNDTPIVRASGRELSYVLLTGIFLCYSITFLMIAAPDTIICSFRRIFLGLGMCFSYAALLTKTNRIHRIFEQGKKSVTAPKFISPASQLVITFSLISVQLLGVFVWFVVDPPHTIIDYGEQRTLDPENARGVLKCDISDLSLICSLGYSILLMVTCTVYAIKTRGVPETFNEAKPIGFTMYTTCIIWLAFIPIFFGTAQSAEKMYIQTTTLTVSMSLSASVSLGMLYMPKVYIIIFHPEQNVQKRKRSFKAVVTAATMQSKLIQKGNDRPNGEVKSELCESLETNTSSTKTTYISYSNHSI
Chain of Metabotropic glutamate receptor 6 (P35349 whole entry): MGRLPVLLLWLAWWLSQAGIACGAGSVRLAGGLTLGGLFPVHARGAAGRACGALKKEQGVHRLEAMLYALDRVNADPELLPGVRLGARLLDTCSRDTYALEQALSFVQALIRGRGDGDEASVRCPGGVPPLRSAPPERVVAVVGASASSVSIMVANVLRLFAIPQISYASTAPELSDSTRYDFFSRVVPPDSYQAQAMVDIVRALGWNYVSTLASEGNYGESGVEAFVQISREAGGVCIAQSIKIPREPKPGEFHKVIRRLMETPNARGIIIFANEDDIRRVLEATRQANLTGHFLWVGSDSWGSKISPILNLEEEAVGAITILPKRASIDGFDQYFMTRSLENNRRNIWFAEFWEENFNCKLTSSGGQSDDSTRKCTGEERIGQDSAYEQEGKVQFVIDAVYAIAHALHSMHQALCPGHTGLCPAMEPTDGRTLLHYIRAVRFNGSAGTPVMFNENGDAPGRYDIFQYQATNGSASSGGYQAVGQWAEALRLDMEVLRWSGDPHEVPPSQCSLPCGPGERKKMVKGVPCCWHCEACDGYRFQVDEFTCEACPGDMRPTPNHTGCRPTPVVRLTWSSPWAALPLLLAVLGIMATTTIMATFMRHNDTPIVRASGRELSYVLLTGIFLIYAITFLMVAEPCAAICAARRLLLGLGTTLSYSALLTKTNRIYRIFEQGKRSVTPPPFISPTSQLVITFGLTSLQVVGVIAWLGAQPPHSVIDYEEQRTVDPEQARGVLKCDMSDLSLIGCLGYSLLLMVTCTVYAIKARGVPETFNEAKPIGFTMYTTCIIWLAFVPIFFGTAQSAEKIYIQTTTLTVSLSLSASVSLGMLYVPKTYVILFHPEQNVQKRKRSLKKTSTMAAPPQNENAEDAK
Chain of Histamine H4 receptor (Q9H3N8 whole entry): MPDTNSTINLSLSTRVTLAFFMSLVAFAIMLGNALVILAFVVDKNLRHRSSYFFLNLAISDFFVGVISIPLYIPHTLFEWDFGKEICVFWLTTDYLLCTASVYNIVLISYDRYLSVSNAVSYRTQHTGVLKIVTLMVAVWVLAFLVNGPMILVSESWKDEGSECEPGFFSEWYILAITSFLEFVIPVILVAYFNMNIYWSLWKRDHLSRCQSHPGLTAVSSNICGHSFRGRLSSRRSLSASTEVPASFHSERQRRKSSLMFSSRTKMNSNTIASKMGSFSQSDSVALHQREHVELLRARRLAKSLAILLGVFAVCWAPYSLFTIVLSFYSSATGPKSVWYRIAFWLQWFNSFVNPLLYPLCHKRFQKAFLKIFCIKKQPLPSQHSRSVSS
Chain of Metabotropic glutamate receptor 2 (Rattus norvegicus) (P31421 whole entry, looked up): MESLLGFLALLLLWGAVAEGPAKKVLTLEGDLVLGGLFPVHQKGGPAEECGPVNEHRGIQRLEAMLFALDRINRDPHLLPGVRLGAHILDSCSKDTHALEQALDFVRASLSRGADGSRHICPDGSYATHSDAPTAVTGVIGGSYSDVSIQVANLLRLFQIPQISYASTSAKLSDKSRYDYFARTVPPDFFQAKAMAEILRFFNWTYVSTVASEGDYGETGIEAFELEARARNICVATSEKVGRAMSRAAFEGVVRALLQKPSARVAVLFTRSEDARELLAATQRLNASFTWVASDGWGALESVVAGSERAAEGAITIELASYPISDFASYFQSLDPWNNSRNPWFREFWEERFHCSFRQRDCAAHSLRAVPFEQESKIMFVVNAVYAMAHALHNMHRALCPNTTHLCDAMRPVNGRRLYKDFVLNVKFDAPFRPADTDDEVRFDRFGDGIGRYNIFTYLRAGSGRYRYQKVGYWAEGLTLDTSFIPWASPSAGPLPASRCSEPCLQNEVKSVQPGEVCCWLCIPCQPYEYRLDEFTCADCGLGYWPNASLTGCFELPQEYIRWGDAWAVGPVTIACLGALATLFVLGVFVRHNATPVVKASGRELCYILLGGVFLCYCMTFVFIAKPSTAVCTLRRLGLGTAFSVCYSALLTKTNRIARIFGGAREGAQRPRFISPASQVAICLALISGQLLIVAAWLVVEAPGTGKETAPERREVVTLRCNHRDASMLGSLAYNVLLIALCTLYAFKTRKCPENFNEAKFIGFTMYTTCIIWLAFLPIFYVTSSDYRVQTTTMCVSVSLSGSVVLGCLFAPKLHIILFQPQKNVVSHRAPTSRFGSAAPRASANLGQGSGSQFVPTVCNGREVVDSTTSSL
Chain of Histamine H1 receptor (P35367 whole entry): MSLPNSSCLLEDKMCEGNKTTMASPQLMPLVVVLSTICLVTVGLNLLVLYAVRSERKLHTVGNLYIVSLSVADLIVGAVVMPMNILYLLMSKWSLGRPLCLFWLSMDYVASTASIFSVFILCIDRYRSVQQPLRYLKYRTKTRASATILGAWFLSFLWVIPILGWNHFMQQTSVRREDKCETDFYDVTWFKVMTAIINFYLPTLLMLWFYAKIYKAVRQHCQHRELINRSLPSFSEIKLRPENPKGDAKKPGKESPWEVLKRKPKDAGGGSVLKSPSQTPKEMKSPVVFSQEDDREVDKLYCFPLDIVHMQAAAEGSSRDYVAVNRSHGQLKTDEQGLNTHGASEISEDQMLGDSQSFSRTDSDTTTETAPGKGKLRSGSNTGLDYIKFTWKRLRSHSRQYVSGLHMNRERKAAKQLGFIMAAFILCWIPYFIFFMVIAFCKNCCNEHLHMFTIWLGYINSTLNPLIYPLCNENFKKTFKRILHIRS
Chain of Metabotropic glutamate receptor 4 (P31423 whole entry): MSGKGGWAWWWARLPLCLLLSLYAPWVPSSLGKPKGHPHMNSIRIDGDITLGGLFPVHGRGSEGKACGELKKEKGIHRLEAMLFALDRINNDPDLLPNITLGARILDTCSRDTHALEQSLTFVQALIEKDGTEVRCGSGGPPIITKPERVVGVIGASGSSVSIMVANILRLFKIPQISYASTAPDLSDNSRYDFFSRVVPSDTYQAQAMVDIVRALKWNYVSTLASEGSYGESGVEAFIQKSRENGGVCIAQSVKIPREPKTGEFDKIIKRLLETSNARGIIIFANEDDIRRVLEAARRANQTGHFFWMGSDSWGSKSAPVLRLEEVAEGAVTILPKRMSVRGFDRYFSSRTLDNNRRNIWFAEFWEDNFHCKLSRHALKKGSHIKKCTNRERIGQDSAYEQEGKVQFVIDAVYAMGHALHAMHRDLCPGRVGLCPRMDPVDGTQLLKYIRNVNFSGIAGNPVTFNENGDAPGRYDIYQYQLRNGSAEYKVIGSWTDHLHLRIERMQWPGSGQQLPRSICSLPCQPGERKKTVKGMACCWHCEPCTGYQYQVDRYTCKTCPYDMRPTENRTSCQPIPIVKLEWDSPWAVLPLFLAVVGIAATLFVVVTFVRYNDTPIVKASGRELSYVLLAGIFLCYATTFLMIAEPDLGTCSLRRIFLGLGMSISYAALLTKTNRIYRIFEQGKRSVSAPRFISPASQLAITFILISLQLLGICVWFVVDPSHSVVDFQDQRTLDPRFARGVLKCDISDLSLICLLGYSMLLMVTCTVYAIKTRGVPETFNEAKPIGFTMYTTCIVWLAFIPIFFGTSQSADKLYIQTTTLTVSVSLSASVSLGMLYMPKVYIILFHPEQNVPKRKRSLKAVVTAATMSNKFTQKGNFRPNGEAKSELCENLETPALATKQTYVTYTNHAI
Chain of Beta-1 adrenergic receptor (P18090 whole entry): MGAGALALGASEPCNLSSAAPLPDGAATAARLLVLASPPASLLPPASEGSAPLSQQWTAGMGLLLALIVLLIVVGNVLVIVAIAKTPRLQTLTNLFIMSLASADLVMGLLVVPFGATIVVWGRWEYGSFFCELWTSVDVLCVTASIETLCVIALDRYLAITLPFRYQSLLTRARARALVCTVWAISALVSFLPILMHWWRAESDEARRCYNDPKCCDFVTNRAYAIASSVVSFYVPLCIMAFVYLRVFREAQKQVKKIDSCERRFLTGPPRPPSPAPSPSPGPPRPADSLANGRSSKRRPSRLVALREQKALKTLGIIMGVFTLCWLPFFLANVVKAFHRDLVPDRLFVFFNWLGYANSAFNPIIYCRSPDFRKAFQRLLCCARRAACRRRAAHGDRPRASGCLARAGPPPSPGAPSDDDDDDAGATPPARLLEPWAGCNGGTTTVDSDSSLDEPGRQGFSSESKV

For `N[C@@H](CCP(=O)(O)O)C(=O)O`, the figures for the pEC50 in test [1] and in [2] were 5.90 and 6.40, respectively.

On to `N[C@@H](CCS(=O)(=O)O)C(=O)O` [L-homocysteic acid], for which the pKi (in test [3]; in [5]; at Histamine H2 receptor; at Histamine H1 receptor; in [7]; in [8]) was under 5.00 each time. Moreover, the pKi (at Cannabinoid receptor 1; at Nischarin; on Histamine H4 receptor; in test [10]; in [11]) was under 5.00 in each case. In addition, the negative-log EC50 (pEC50) in test [4] is under 5.00; in [6], under 5.00; in test [1], under 5.00; in [9], 5.20; in test [12] it was under 5.00; in [2], 5.10.

One may read the pEC50 as the negative decadic logarithm of the EC50, by convention in mol/L. As a reminder, the pKi is the negative decadic logarithm of the Ki, by convention in mol/L.
